Some results are limits rather than exact numbers.

The subject of one test is Blumeria graminis f. Sp. Tritici (Erysiphe qraminis f. Sp. Tritici). The test can be described thus: Blumeria graminis f. sp. tritici / wheat / leaf disc preventative (powdery mildew on wheat). The test is classed as in vivo. To be noted: foliar, wheat leaf disks cv. Kanzler, inoculated 1 day after application, compared to untreated control, read-out: disease control. The protocol:
Blumeria graminis f. Sp. Tritici (Erysiphe qraminis f. Sp. Tritici)/Wheat/Leaf Disc Preventative (Powdery Mildew on Wheat)
Wheat leaf segments cv. Kanzler were placed on agar in a multiwell plate (24-well format) and sprayed with the formulated test compound or mixture composition diluted in water. The leaf disks were inoculated by shaking powdery mildew infected plants above the test plates 1 day after application. The inoculated leaf disks were incubated at 20° C. and 60% rh under a light regime of 24 h darkness followed by 12 h light/12 h darkness in a climate chamber and the activity of a compound or mixture composition was assessed as percent disease control compared to untreated when an appropriate level of disease damage appears on untreated check leaf segments (6-8 days after application).
For the molecule `CCCOC[C@H](C)Oc1nc(C)c(/N=C/N(C)CC)cc1Br` [Compound 67.002, N′-[5-bromo-2-methyl-6-[(1S)-1-methyl-2-propoxy-ethoxy]-3-pyridyl]-N-ethyl-N-methyl-formamidine], the pest or weed control at 200 ppm was at least 80%.

The subject of the next test is Phakopsora pachyrhizi (triazole tolerant soybean rust strain). Nature of the test: Phakopsora pachyrhizi on soybean, preventive treatment. The test is classed as in vivo. Conditions: foliar, 264 h, 1 day preventive, leaf discs evaluated 11 days after application, compared to untreated control, read-out: disease control. The protocol: Phakopsora pachyrhizi on Soybean, Preventive Treatment
The compound or mixture composition activity was tested under 1 day preventive conditions. Soybean plants with a fully enfolded first trifoliate leaf were sprayed with a track sprayer and 50 l/ha spray volume with the test compounds or mixture composition, either solo or in tankmix as shown in the table below.
1 day after application leaf discs were cut from the first trifoliate leaf and placed in multiwell plates on water-agar. 5 leaf discs per treatment where infested with spores of a triazole tolerant soybean rust strain. The multiwell plates where sealed and placed in an incubator 48 h in darkness and 12 h light/dark cycle afterwards. Rust infestation on leaf discs was evaluated visually 11 days after application and average activity calculated in relation to disease severity on untreated check leaf discs.
Consider `CCCOC[C@H](C)Oc1nc(C)c(/N=C/N(C)CC)cc1Br` [Compound 67.002, N′-[5-bromo-2-methyl-6-[(1S)-1-methyl-2-propoxy-ethoxy]-3-pyridyl]-N-ethyl-N-methyl-formamidine], for which the pest or weed control at 200 ppm is at least 80%.

For the next test, the system named is Puccinia recondita f. sp. tritici. The test can be described thus: Puccinia recondita f. sp. tritici / wheat / leaf disc curative (brown rust). The test is classed as in vivo. Conditions: foliar, 24 h, wheat leaf disks cv. Kanzler, applied 1 day after inoculation (curative), compared to untreated control, read-out: disease control. The protocol:
Puccinia recondita f. Sp. Tritici/Wheat/Leaf Disc Curative (Brown Rust)
Wheat leaf segments cv. Kanzler are placed on agar in multiwell plates (24-well format). The leaf segments are inoculated with a spore suspension of the fungus. Plates were stored in darkness at 19° C. and 75% rh. The formulated test compound or mixture composition diluted in water was applied 1 day after inoculation. The leaf segments were incubated at 19° C. and 75% rh under a light regime of 12 h light/12 h darkness in a climate cabinet and the activity of a compound or mixture composition was assessed as percent disease control compared to untreated when an appropriate level of disease damage appears in untreated check leaf segments (6-8 days after application).
Regarding `CCN(C)/C=N/c1cc(Br)c(OC(C)COc2ccccc2)nc1C` (stereo not shown) [Compound 67.028], the pest or weed control at 200 ppm was at least 80%.
On the same count and under the same terms, the result for `CCCOCC(C)Oc1nc(C)c(/N=C/N(C)CC)cc1Br` (stereo not shown) [Compound 67.013, N′-[5-bromo-2-methyl-6-(1-methyl-2-propoxy-ethoxy)-3-pyridyl]-N-ethyl-N-methyl-formamidine] reads at least 80%.
On the same count and under the same terms, under `CCCOC[C@H](C)Oc1nc(C)c(/N=C/N(C)CC)cc1Br` [Compound 67.002, N′-[5-bromo-2-methyl-6-[(1S)-1-methyl-2-propoxy-ethoxy]-3-pyridyl]-N-ethyl-N-methyl-formamidine] stands at least 80%; under `CCCOCC(C)Oc1nc(C)c(/N=C/N(C)CC)cc1C#N` (stereo not shown) [Compound 67.007, N′-[5-cyano-2-methyl-6-(1-methyl-2-propoxy-ethoxy)-3-pyridyl]-N-ethyl-N-methyl-formamidine], at least 80%.
The same measure, in the same setting: under `CCCOCC(C)Oc1ccc(/N=C/N(C)CC)c(C)n1` (stereo not shown) [Compound 67.012] stands at least 80%.
`CCN(C)/C=N/c1cc(C#N)c(OC(C)COc2ccccc2)nc1C` (stereo not shown) [Compound 67.022]: the pest or weed control at 200 ppm was at least 80%.
Take `CCCOCC(C)Oc1nc(C)c(/N=C/N(C)CC)cc1Cl` (stereo not shown) [Compound 67.015, N′-[5-chloro-2-methyl-6-(1-methyl-2-propoxy-ethoxy)-3-pyridyl]-N-ethyl-N-methyl-formamidine]: the pest or weed control at 200 ppm was at least 80%.
Still for that read-out and setting: the result for `CCCOCC(C)Oc1nc(C)c(/N=C/N(C)CC)cc1OC(F)F` (stereo not shown) [Compound 67.010] reads at least 80%; that for `CCN(C)/C=N/c1cc(Cl)c(OC(C)COc2ccc(Cl)cc2)nc1C` (stereo not shown) [Compound 67.024], at least 80%; that for `C=CCOCC(C)Oc1nc(C)c(/N=C/N(C)CC)cc1Cl` (stereo not shown) [Compound 67.014, N′-[6-(2-allyloxy-1-methyl-ethoxy)-5-chloro-2-methyl-3-pyridyl]-N-ethyl-N-methyl-formamidine], at least 80%.
As to `CCCOCC(C)Oc1nc(C)c(/N=C/N(C)C(C)C)cc1Br` (stereo not shown) [Compound 67.018, N′-[5-bromo-2-methyl-6-(1-methyl-2-propoxy-ethoxy)-3-pyridyl]-N-isopropyl-N-methyl-formamidine], the pest or weed control at 200 ppm is at least 80%.
Same read-out and setting: under `CCN(C)/C=N/c1cc(Br)c(OC(C)COc2cccc(C(F)(F)F)c2)nc1C` (stereo not shown) [Compound 67.027] stands at least 80%.
Consider `CCCOC[C@@H](C)Oc1nc(C)c(/N=C/N(C)CC)cc1Br` [Compound 67.003, N′-[5-bromo-2-methyl-6-[(1R)-1-methyl-2-propoxy-ethoxy]-3-pyridyl]-N-ethyl-N-methyl-formamidine], for which the pest or weed control at 200 ppm was at least 80%.
On the same count and under the same terms, under `CCN(C)/C=N/c1cc(Cl)c(OC(C)COc2ccccc2)nc1C` (stereo not shown) [Compound 67.025] stands at least 80%.
Regarding `CCN(C)/C=N/c1cc(Cl)c(OC(C)COc2cccc(C(F)(F)F)c2)nc1C` (stereo not shown) [Compound 67.023], the pest or weed control at 200 ppm is at least 80%.
The same measure, in the same setting: the result for `CCN(C)/C=N/c1cc(Br)c(OC(C)COc2ccc(Cl)cc2)nc1C` (stereo not shown) [Compound 67.026] reads at least 80%.
For `CCCOCC(C)Oc1nc(C)c(/N=C/N(C)CC)cc1C(F)F` (stereo not shown) [Compound 67.009, N′-[5-(difluoromethyl)-2-methyl-6-(1-methyl-2-propoxy-ethoxy)-3-pyridyl]-N-ethyl-N-methyl-formamidine], the pest or weed control at 200 ppm is at least 80%.
On the same count and under the same terms, the result for `CCN(C)/C=N/c1cc(C#N)c(OC(C)COc2cccc(C(F)(F)F)c2)nc1C` (stereo not shown) [Compound 67.020] reads at least 80%; that for `C=CCOCC(COC)Oc1nc(C)c(/N=C/N(C)CC)cc1Br` (stereo not shown) [Compound 67.016], at least 80%.
Regarding `CCCOCC(C)Oc1nc(C)c(/N=C/N(C)CC)cc1C` (stereo not shown) [Compound 67.011, N′-[2,5-dimethyl-6-(1-methyl-2-propoxy-ethoxy)-3-pyridyl]-N-ethyl-N-methyl-formamidine], the pest or weed control at 200 ppm was at least 80%.
The same measure, in the same setting: the result for `C=CCOCC(C)Oc1nc(C)c(/N=C/N(C)CC)cc1C#N` (stereo not shown) [Compound 67.017] reads at least 80%.
`CCN(C)/C=N/c1cc(C#N)c(OC(C)COc2ccc(Cl)cc2)nc1C` (stereo not shown) [Compound 67.021]: the pest or weed control at 200 ppm was at least 80%.

The test system is the same in another test. Nature of the test: Puccinia recondita f. sp. tritici / wheat / leaf disc preventative (brown rust). The test is classed as in vivo. To be noted: foliar, wheat leaf disks cv. Kanzler, inoculated 1 day after application, compared to untreated control, read-out: disease control. The method, then:
Puccinia recondita f. sp. tritici/wheat/leaf disc preventative (brown rust)
Wheat leaf segments cv. Kanzler were placed on agar in multiwell plates (24-well format) and sprayed with the formulated test compound or mixture composition diluted in water. The leaf disks were inoculated with a spore suspension of the fungus 1 day after application. The inoculated leaf segments were incubated at 19° C. and 75% rh under a light regime of 12 h light/12 h darkness in a climate cabinet and the activity of a compound or mixture composition was assessed as percent disease control compared to untreated when an appropriate level of disease damage appears in untreated check leaf segments (7-9 days after application).
As for `CCCOC[C@H](C)Oc1nc(C)c(/N=C/N(C)CC)cc1Br` [Compound 67.002, N′-[5-bromo-2-methyl-6-[(1S)-1-methyl-2-propoxy-ethoxy]-3-pyridyl]-N-ethyl-N-methyl-formamidine], the pest or weed control at 200 ppm was at least 80%.

Source of the values: patent US10631539B2, “Fungicidal compositions” (SYNGENTA PARTICIPATIONS AG, priority 2015, dated 2020).
